Usually bioavailability stands for dose-corrected exposure relative to a reference, in per cent. Higher therefore signals much systemic uptake. For orientation: EC50 means the concentration at which the effect is half-maximal. By half-life is commonly meant the time needed for the level to fall by half in the phase considered. For orientation: Cmax means the peak of the concentration-time curve. Broadly, the clearance is a measure of how efficiently the substance is removed, as volume per time. In general, AUC(0-t) refers to exposure summed from dosing to a finite time, without extrapolation to infinity. High values mean high exposure, low ones low exposure. What is called Vd is the apparent volume that relates the amount in the body to the concentration in plasma or blood. A lower Vd goes with confinement near the circulation. Broadly, the AUC is concentration integrated over time. A higher AUC goes with more exposure. As a reminder, the CC50 is the concentration at which the toxic effect on the cells reaches its halfway point. The low end stands for greater toxicity to the cells, the high end for lower toxicity to the cells.

Results on eight molecules are retold here after ChEMBL document CHEMBL3784995, “Inhibitors of HIV-1 maturation: Development of structure-activity relationship for C-28 amides based on C-3 benzoic acid-modified triterpenoids” (Bioorg Med Chem Lett, 2016).

Bounds are passed on as bounds.

Data set [1] can be described thus: Bioavailability in cannula implanted rat at 5 mg/kg administered through oral gavage after 24 hrs by LC-MS/MS analysis. Particulars: in vivo. The format is ADME, organism-based.
Data set [2] relates to Human immunodeficiency virus 1. The data set is described as follows: Antiviral activity against wild type HIV1 NL4-3 habouring Gag protein delta V370 infected in human MT2 cells after 4 to 5 days by dual-luciferase reporter gene assay. It is filed as functional, organism-based. Particulars: Human immunodeficiency virus 1, NL4-3, MT2. (In general: In a reporter assay the amount or activity of a reporter protein is the signal.)

Data set [3] can be described thus: Metabolic stability in human liver microsomes at 0.5 uM by LC-MS/MS analysis in presence of NADPH. The format is ADME.
Data set [4] can be described thus: Cmax in cannula implanted rat at 5 mg/kg administered through oral gavage after 24 hrs by LC-MS/MS analysis. The format is ADME, organism-based. Set-up: dose 5 mg/kg, route oral. Conditions: in vivo.
In data set [5] the test system is Human immunodeficiency virus 1. Kind of data set: Antiviral activity against wild type BVM-resistant HIV1 NL4-3 habouring Gag protein delta T371 infected in human MT2 cells after 4 to 5 days by dual-luciferase reporter gene assay. The format is functional, organism-based. Conditions: Human immunodeficiency virus 1, NL4-3, MT2.
A short description of data set [6]: Metabolic stability in rat liver microsomes at 0.5 uM by LC-MS/MS analysis in presence of NADPH. It is filed as ADME. (In general: Liver microsomes are vesicles of endoplasmic reticulum, rich in cytochrome P450 enzymes.)
Data set [7] in a line: Plasma clearance in cannula implanted rat at 1 mg/kg, iv by LC-MS/MS analysis. The format is ADME, organism-based.
The subject of data set [8] is Human immunodeficiency virus 1. The data set is described as follows: Antiviral activity against wild type HIV1 NL4-3 infected in human MT2 cells after 4 to 5 days by dual-luciferase reporter gene assay. Particulars: Human immunodeficiency virus 1, NL4-3, MT2. It is filed as functional, organism-based.
Data set [9] can be described thus: AUC (0 to 6 hrs) in cannula implanted rat at 5 mg/kg administered through oral gavage after 24 hrs by LC-MS/MS analysis. Conditions: in vivo. The arrangement: dose 5 mg/kg, time < 6 hr, route oral. It is filed as ADME, organism-based.
In data set [10] the test system is Human immunodeficiency virus 1. Kind of data set: Antiviral activity against wild type BVM-resistant HIV1 NL4-3 habouring Gag protein V370M mutant infected in human MT2 cells after 4 to 5 days by dual-luciferase reporter gene assay. It is filed as functional, organism-based. Particulars: Human immunodeficiency virus 1, NL4-3, MT2.
A further data set is described as follows: in vivo. Conditions: rat, iv, 1 mg/kg.
The nature of data set [11]: (§1) Total AUC in cannula implanted rat at 5 mg/kg administered through oral gavage after 24 hrs by LC-MS/MS analysis. Particulars: in vivo. Set-up: dose 5 mg/kg, time AUCmax, route oral. The format is ADME, organism-based.
The test system of data set [12] is Human immunodeficiency virus 1. Kind of data set: Antiviral activity against wild type BVM-resistant HIV1 NL4-3 habouring Gag protein T371A mutant infected in human MT2 cells after 4 to 5 days by dual-luciferase reporter gene assay. Particulars: Human immunodeficiency virus 1, NL4-3, MT2. It is filed as functional, organism-based.
Data set [13] in a line: Cytotoxicity against human MT2 cells. It is filed as cell-based.
The nature of data set [14]: Plasma concentration in cannula implanted rat at 5 mg/kg administered through oral gavage after 24 hrs by LC-MS/MS analysis. The format is ADME, organism-based.
In data set [15] the test system is Human immunodeficiency virus 1. The data set is described as follows: Antiviral activity against wild type HIV1 NL4-3 habouring Gag protein V370A mutant infected in human MT2 cells after 4 to 5 days by dual-luciferase reporter gene assay. It is filed as functional, organism-based. Particulars: Human immunodeficiency virus 1, NL4-3, MT2.
Data set [16] has as its system Human immunodeficiency virus 1. Kind of data set: Antiviral activity against wild type HIV1 NL4-3 infected in human MT2 cells after 4 to 5 days by dual-luciferase reporter gene assay in presence of human serum albumin. It is filed as functional, organism-based. Conditions: Human immunodeficiency virus 1, NL4-3, MT2.
A further data set deals with Rattus norvegicus. The data set is described as §1. The arrangement: dose 5 mg/kg, time AUCmax, route oral. Particulars: in vivo, 24 h. The format is ADME, organism-based.

Description for in vivo: Volume of distribution at steady state in cannula implanted rat at 1 mg/kg, iv by LC-MS/MS analysis

`C=C(C)[C@@H]1CC[C@]2(C(=O)O)CC[C@]3(C)[C@H](CC[C@@H]4[C@@]5(C)CC=C(c6ccc(C(=O)O)cc6)C(C)(C)[C@@H]5CC[C@]43C)[C@@H]12` had a bioavailability in [1] of 4%. This molecule had an EC50 in data set [2] of more than 6000 nM.

As to `C=C(C)[C@@H]1CC[C@]2(C(=O)NCCc3ccccn3)CC[C@]3(C)[C@H](CC[C@@H]4[C@@]5(C)CC=C(c6ccc(C(=O)O)cc6)C(C)(C)[C@@H]5CC[C@]43C)[C@@H]12`, the half-life at 0.5 µM in data set [3] is 0.717 h; in data set [6], more than 2 h. In data set [4], the Cmax was determined as 172 nM. Moreover, the EC50 in data set [5] came out at 38 nM; in data set [8], 15 nM; in data set [10], 61 nM; in data set [12], 19 nM; in data set [2], 415 nM; in data set [15], 19 nM. The same molecule showed a bioavailability in [1] of 3%. Moreover, in data set [7], the clearance stood at 3.2 mL/min/kg. Further, the AUC(0-t) at 6 h in data set [9] is 0.721 µM·h. In addition, in the data set “in vivo”, the Vd was 1.1 L/kg. Further, the AUC at 24 h in data set [11] is 1.23 µM·h. The molecule further yielded a CC50 in data set [13] of 8000 nM. Moreover, the concentration at 24 h in data set [14] was 5 nM.

`C=C(C)[C@@H]1CC[C@]2(C(=O)N(C)CCN(C)C)CC[C@]3(C)[C@H](CC[C@@H]4[C@@]5(C)CC=C(c6ccc(C(=O)O)cc6)C(C)(C)[C@@H]5CC[C@]43C)[C@@H]12`: the figures for the half-life at 0.5 µM in data set [3] and in [6] were more than 2 h and 1.42 h, respectively. Besides, the EC50 in data set [16] is 17 nM; in data set [8] it was 6 nM; in data set [2], 25 nM; in data set [15], 38 nM. For the same molecule, the peak level in data set [4] (Cmax) was 386 nM. Besides, in data set [1], the bioavailability is 11%. The molecule further yielded a clearance in [7] of 2.2 mL/min/kg. The AUC(0-t) at 6 h in data set [9] turned out to be 1.42 µM·h. The AUC at 24 h in [11] was found to be 6.87 µM·h. The midpoint of cytotoxicity in [13], the CC50, lay at 3000 nM. In [14], this molecule had a concentration at 24 h of 108 nM.

For `C=C(C)[C@@H]1CC[C@]2(C(=O)NCCC(=O)O)CC[C@]3(C)[C@H](CC[C@@H]4[C@@]5(C)CC=C(c6ccc(C(=O)O)cc6)C(C)(C)[C@@H]5CC[C@]43C)[C@@H]12`, the values for the half-life at 0.5 µM in data set [3] and in data set [6] were 1.88 h and more than 2 h, respectively. The EC50 was 449 nM in [16], 37 nM in [8], more than 4000 nM in [2] and 427 nM in data set [15]. In data set [4], this molecule came in with a Cmax of 9470 nM. The molecule further showed a bioavailability in data set [1] of 71%. The molecule further yielded a clearance in data set [7] of 1.2 mL/min/kg. This molecule returned an area under the curve AUC(0-t) at 6 h in data set [9] of 43.2 µM·h. Besides, the Vd in the data set “in vivo” worked out at 0.02 L/kg. Further, the AUC at 24 h in [11] came out at 79.9 µM·h. The same molecule had a cytotoxic concentration (CC50) in data set [13] of 36000 nM. Besides, in [14], the concentration at 24 h was determined as 137 nM.

As to `C=C(C)[C@@H]1CC[C@]2(C(=O)NCCN(C)C)CC[C@]3(C)[C@H](CC[C@@H]4[C@@]5(C)CC=C(c6ccc(C(=O)O)cc6)C(C)(C)[C@@H]5CC[C@]43C)[C@@H]12`, the half-life at 0.5 µM in data set [3] and in data set [6] was more than 2 h in each case. The molecule further showed a Cmax in data set [4] of 396 nM. The EC50 was found to be 3 nM in data set [5], 10 nM in [10], 3 nM in data set [12] and 31 nM in [2]. The molecule also showed a bioavailability in data set [1] of 17%. In addition, the clearance in data set [7] came to 6.1 mL/min/kg. This molecule had an AUC(0-t) at 6 h in data set [9] of 1.62 µM·h. The molecule also yielded a Vd in the data set “in vivo” of 2.3 L/kg. The molecule also gave an AUC in the data set on Rattus norvegicus of 3.814 µM·h. In addition, the midpoint of cytotoxicity in data set [13], the CC50, lay at 3000 nM.

Regarding `C=C(C)[C@@H]1CC[C@]2(C(=O)NCCCN(C)C)CC[C@]3(C)[C@H](CC[C@@H]4[C@@]5(C)CC=C(c6ccc(C(=O)O)cc6)C(C)(C)[C@@H]5CC[C@]43C)[C@@H]12`, the half-life at 0.5 µM in [3] and in data set [6] was more than 2 h throughout. The EC50 was 3 nM in data set [16], 2 nM in data set [8], 50 nM in [2] and 9 nM in data set [15]. In addition, the Cmax in [4] turned out to be 36 nM. Besides, the clearance in data set [7] turned out to be 8.3 mL/min/kg. In data set [9], this molecule gave an AUC(0-t) at 6 h of 0.116 µM·h. This molecule also gave a CC50 in data set [13] of 500 nM.

In the case of `C=C(C)[C@@H]1CC[C@]2(C(=O)NCCN(C(C)C)C(C)C)CC[C@]3(C)[C@H](CC[C@@H]4[C@@]5(C)CC=C(c6ccc(C(=O)O)cc6)C(C)(C)[C@@H]5CC[C@]43C)[C@@H]12`, the half-life at 0.5 µM in data set [3] and in data set [6] was more than 2 h throughout. The same molecule returned a Cmax in data set [4] of 302 nM. This molecule also displayed a clearance in [7] of 4.3 mL/min/kg. The EC50 in data set [8] was determined as 4 nM; in [2], 69 nM; in data set [15], 13 nM. The molecule further gave an AUC(0-t) at 6 h in [9] of 1.31 µM·h. For the same molecule, the cytotoxic concentration (CC50) in data set [13] was found to be 3000 nM.

`C=C(C)[C@@H]1CC[C@]2(C(=O)O)CC[C@]3(C)[C@H](CC[C@@H]4[C@@]5(C)CC[C@H](OC(=O)CC(C)(C)C(=O)O)C(C)(C)[C@@H]5CC[C@]43C)[C@@H]12` [BEVIRIMAT]: the EC50 is 40 nM in data set [12] and more than 10000 nM in [2].
